Assay results published in ChEMBL document CHEMBL5137126, “Alliacane-Type Secondary Metabolites from Submerged Cultures of the Basidiomycete Clitocybe nebularis” (J Nat Prod, 2022).
≈ marks a conversion by molar mass, not a printed value.

How the values were obtained:
Bacillus subtilis = test: Antibacterial activity against Bacillus subtilis DSM 10 assessed as inhibition of bacterial growth incubated overnight by serial dilution method; type: functional
L929 = test: Cytotoxicity against mouse L929 cells assessed as inhibition of cell growth at 0.0006 to 0.037 ug/ml incubated for 5 days by MTT assay; type: toxicity, cell-based; settings: l929, 120 h, dose 0.0006-0.037 µg/ml, time 5 day
KB 3-1 = test: Cytotoxicity against human KB 3-1 cells assessed as inhibition of cell growth incubated for 5 days by MTT assay; type: functional, cell-based; settings: KB 3-1, 120 h
A549 = test: Cytotoxicity against human A549 cells assessed as inhibition of cell growth incubated for 5 days by MTT assay; type: functional, cell-based; settings: A549, 120 h
A-431 = test: Cytotoxicity against human A-431 cells assessed as inhibition of cell growth incubated for 5 days by MTT assay; type: functional, cell-based; settings: A-431, 120 h
MCF7 = test: Cytotoxicity against human MCF7 cells assessed as inhibition of cell growth incubated for 5 days by MTT assay; type: functional, cell-based; settings: MCF7, 120 h
[1] = Cytotoxicity against mouse L929 cells assessed as inhibition of cell growth incubated for 5 days by MTT assay; type: toxicity, cell-based
SK-OV-3 = test: Cytotoxicity against human SK-OV-3 cells assessed as inhibition of cell growth incubated for 5 days by MTT assay; type: functional, cell-based; settings: SK-OV-3, 120 h
PC-3 = test: Cytotoxicity against human PC-3 cells assessed as inhibition of cell growth incubated for 5 days by MTT assay; type: functional, cell-based; settings: PC-3, 120 h
[2] = tested on: Schizosaccharomyces pombe; test: Antifungal activity against Schizosaccharomyces pombe DSM70572 assessed as inhibition of fungal growth incubated for 48 hrs by serial dilution method; type: functional
Rhodotorula glutinis = test: Antifungal activity against Rhodotorula glutinis DSM10134 assessed as inhibition of fungal growth incubated for 48 hrs by serial dilution method; type: functional
Wickerhamomyces anomalus = test: Antifungal activity against Pichia anomala DSM6766 assessed as inhibition of fungal growth incubated overnight by serial dilution method; type: functional
Mucor hiemalis = test: Antifungal activity against Mucor hiemalis DSM2656 assessed as inhibition of fungal growth incubated overnight by serial dilution method; type: functional
Candida albicans = test: Antifungal activity against Candida albicans DSM1665 assessed as inhibition of fungal growth incubated overnight by serial dilution method; type: functional

CN(C)[C@@H]1C(O)=C(C(N)=O)C(=O)[C@@]2(O)C(O)=C3C(=O)c4c(O)cccc4[C@@](C)(O)[C@H]3[C@H](O)[C@@H]12 [OXYTETRACYCLINE]
MIC (Bacillus subtilis): 9.2 µg/mL (≈ 20 µM)

C=C(C(=O)O)C1=C2CC(C)(C)C[C@@H]2[C@H](C)CC1=O
Activity (L929): Non-Toxic

C=C(C(=O)O)[C@]12O[C@]13CC(C)(C)C[C@@H]3[C@H](C)[C@H](O)C2=O
IC50 (KB 3-1): 18 µM
IC50 (A549): 53 µM
IC50 (A-431): 7 µM
IC50 (MCF7): 8 µM
IC50 at 5 days [1]: 22 µM
IC50 (SK-OV-3): 20 µM
IC50 (PC-3): 36 µM

NYSTATIN
MIC [2]: 4.2 µg/mL
MIC (Rhodotorula glutinis): 1 µg/mL
MIC (Wickerhamomyces anomalus): 4.6 µg/mL
MIC (Mucor hiemalis): 9.2 µg/mL

C/C(=C\c1csc(C)n1)[C@H]1C[C@H]2O[C@@]2(C)CCC[C@H](C)[C@@H](O)[C@@H](C)C(=O)C(C)(C)[C@H](O)CC(=O)O1
IC50 (KB 3-1): 0.0028 µM
IC50 (A549): 0.0034 µM
IC50 (A-431): 0.0031 µM
IC50 (MCF7): 0.0027 µM
IC50 at 5 days [1]: 0.001 µM
IC50 (SK-OV-3): 0.0075 µM
IC50 (PC-3): 0.003 µM

C[C@@H]1C(=O)c2occ(CO)c2[C@]2(O)CC(C)(C)C[C@H]12
Activity (L929): Non-Toxic

Cc1cc2[nH]cc(C=O)c2c2c1CC(C)(C)C2
MIC [2]: 33.3 µg/mL (≈ 146 µM)
IC50 (KB 3-1): 21 µM
MIC (Rhodotorula glutinis): 4.2 µg/mL (≈ 18.5 µM)
MIC (Wickerhamomyces anomalus; Hansenula anomala): 33.3 µg/mL (≈ 146 µM)
MIC (Mucor hiemalis): 16.6 µg/mL (≈ 73 µM)
IC50 at 5 days [1]: 41 µM
MIC (Candida albicans): 66.6 µg/mL (≈ 293 µM)
MIC (Bacillus subtilis): 66.6 µg/mL (≈ 293 µM)

C[C@@H]1C(=O)c2[nH]cc(CO)c2C2=CC(C)(C)C[C@@H]21
IC50 (KB 3-1): 47 µM
MIC (Rhodotorula glutinis): 66.6 µg/mL (≈ 271 µM)
IC50 at 5 days [1]: 68 µM
